Test [1] concerns human OPN promoter (pOPN1-luc) in A549/OPNluc cells. The test can be described thus: Luciferase assay: luciferase expression under control of OPN promoter. The test is classed as cell-based. Conditions: Homo sapiens. An excerpt:
A reporter vector pOPN1-luc obtained by the insertion of a human OPN promoter sequence (−765 to 23) into the multiple cloning site of pGL-3 basic vector (Promega) expresses luciferase when transfected into animal cells. The pOPN1-luc was transfected into a human non-small cell lung cancer-derived cell line A549 together with pPUR (Clontech) that expresses a puromycin resistance gene (puromycin-N-acetyl-transferase gene), and then cells expressing luciferase which could grow a puromycin-supplemented medium were selected. The selected cells were named “A549/OPNluc cells” and used for observation of luciferase expression inhibitory effect under control of OPN promoter, as described below.
A test compound was added to a culture containing A549/OPNluc cells to observe its influence on the amount of luciferase expressed in the cells. Here, it can be considered that when the test compound has a cell cytotoxity or cell growth inhibitory effect, the total expression level of luciferase is reduced due to a reduction in the number of living cells that depends on the concentration of the test compound, and therefore the luciferase expression inhibitory effect of the test compound under control of OPN promoter cannot be properly evaluated. For this reason, WST assay for quantification of cell proliferation ability or cell viability by colorimetric measurement was firstly performed to determine IC50 (concentration for 50% inhibition of cell growth) of the test compound for cell growth. Then, luciferase activity measurement was performed to determine EC50 (concentration for 50% inhibition of luciferase expression) of the test compound for luciferase expression under control of OPN promoter.
The same steps as in the above-mentioned WST assay were performed in which each solution of only DMSO (control) or the diluted test compound (sample) was added in an amount of 0.5 μL to each well containing the cell suspension to achieve 200-fold dilution, and the solution in each well was mixed with a vortex mixer, and the 96-well plate was incubated in a CO2 incubator (at 37° C. and 5% CO2) for 48±4 hours.
Luciferase Assay Substrate (hereinafter referred to as “LAS”) supplied in Luciferase Assay Systems (Promega: Cat #E1500) was dissolved in Luciferase Assay Buffer (LAB) to prepare a luciferase reagent. 5×Cell Culture Lysis Reagent (hereinafter referred to as “CCLR”) was diluted by 5 times with water to prepare 1×CCLR.
After the incubation for 48±4 hours, the medium in each well was completely removed, and 1×CCLR was dispensed into each well in an amount of 50 μL. The 96-well plate was allowed to stand at room temperature for 30 minutes, and then 1×CCLR in each well was used as an assay sample. The luciferase reagent (100 μL) was placed in a tube for chemiluminescence measurement, and the assay sample (20 μL) was added to the tube and mixed with the luciferase reagent to measure chemiluminescence (Relative Luminescence Intensity: RLU) using TB 20/20 (Promega) or GloMax 20/20 (Promega).
The RLU values of the control wells and the sample wells at each concentration were input into an Excel file, and the percentages of RLU values of the sample wells at each concentration to the average RLU value of the control wells were determined. From these values, a fitted curve was determined by the method of least squares to calculate EC50. Also, the percentages of RLU values of the sample wells at each concentration to the average RLU value of the control wells were divided by the percentages of absorbance values of the compounds in WST assay at the same concentrations as those of this assay (to the control), and a fitted curve was determined from the calculated values by the method of least squares to calculate corrected EC50.

The test system of the next test is A549 cells. Nature of the test: Matrix-Invasion assay (Matrigel). It is filed as cell-based, human. Conditions: 10 μmol/L, 48±4 hours, significance level less than 5%. The method, then:
As a second test for determining whether or not the physiological function of cells induced by the OPN production is inhibited with a test compound, Matrix-Invasion assay was performed. In this assay, cups (inserts) whose bottom was covered with a membrane having φ8 μm pores coated with collagen or laminin (Matrigel, BD Bioscience) that is an extracellular matrix component and a 24-well plate for inserting the inserts were prepared. […]
Specifically, a fluorescent dye was introduced into A549 cells invading outside the membrane, and then the cells were separated from the membrane to measure their fluorescence intensity. At the same time, a fluorescent dye was introduced into a known number of cells for preparing a calibration curve, and a calibration curve was prepared from their fluorescence intensity. Then, the number of invading cells of a test sample containing an unknown number of cells was determined from the fitted curve. […]
The cells of human non-small cell lung cancer-derived cell line A549 were suspended in DMEM medium containing 10% FCS and 1% P/S at 1.8×10^5 cells/mL to obtain a cell suspension. […] This day was counted as Day 0 of operation. […]

The mark [2] stands for this setting: A549, A549/OPNluc cells, 48±4 hours, read-out: EC50 (concentration for 50% inhibition of luciferase expression).
The mark [3] stands for this setting: A549, EC50 corrected for decrease in viable cells (RLU % divided by WST %), read-out: corrected EC50.

pEC50: −log10 of the molar value. Where two headings read alike, the source gives them in different places.

Regarding `COc1ccc(Oc2cccc(C(=O)CCNC(=O)c3ccc(O)cc3)c2N)cc1` [Compound 6, N-(3-(2-Amino-3-(4-methoxyphenoxy)phenyl)-3-oxopropyl)-4-hydroxybenzamide], the results for the pEC50 in test [1] (setting [2]) and in test [1] (setting [3]) were 5.05 and 4.99, respectively. For the same compound, the “number of invading cells vs control group” value with A549 cells is recorded as “significantly inhibited”.
For the compound `Nc1ccc(C(=O)NCCC(=O)c2cccc(Oc3ccc(Cl)cc3)c2N)cc1` [Compound 19, N-(3-(2-Amino-3-(4-chlorophenoxy)phenyl)-3-oxopropyl)-4-aminobenzamide], the pEC50 was 5.17 in test [1] (setting [2]) and 5.11 in test [1] (setting [3]).
For `COc1ccc(Oc2cccc(NC(=O)CCNC(=O)c3ccc(O)cc3)c2)cc1` [Compound 26, N-(3-(3-(4-Methoxyphenoxy)phenylamino)-3-oxopropyl)-4-hydroxybenzamide], the pEC50 in test [1] (setting [2]) was 4.69; in test [1] (setting [3]), 4.57.
For `O=C(CCNC(=O)c1ccc(O)cc1)Nc1cccc(Oc2ccc(Cl)c(Cl)c2)c1` [Compound 38, N-(3-(3-(3,4-dichlorophenoxy)phenylamino)-3-oxopropyl)-4-hydroxybenzamide] the same measures were 5.34 and 5.12.
